Reference: patent publication US20030109525A1, “Crystalline thiazine oxazolidinones” (PHARMACIA & UPJOHN COMPANY, priority 2001, published 2003)

Tests used:
[1] = Hygroscopicity by dynamic moisture sorption gravimetry (DMSG); assay type: physicochemical; conditions: 25° C.
Method: X-ray diffraction (XRD) patterns were measured on a Scintag X2 diffractometer (Thermo ARL, Ecublens, Switzerland) equipped with a theta-theta goniometer. Single crystal x-ray diffraction was carried out on a Bruker SMART 6K CCD Area Detector diffractometer (Bruker AXS, Karlsruhe, Germany). Mass spectrometry (MS) (ionization type) was carried out on a Micromass Platform II spectrometer (Micromass, Manchester, United Kingdom). High pressure liquid chromatography (HPLC) was carried out on an Agilent 1100 Series chromatograph (Agilent Technologies, Palo Alto, Calif.). Melting points were determined using a TA Instruments 2920 differential scanning calorimeter (TA Instruments, New Castle, Del.) module with a Thermal Analyst 5000 controller. Hygroscopicity was assessed by dynamic moisture sorption gravimetry (DMSG) using a Controlled Atmosphere Microbalance (Pharmacia Corp., Kalamazoo, Mich.). All chemicals used are available from Aldrich Chemical Co., Milwaukee, Wis., unless otherwise specified. N-({(5S)-3-[3,5-difluoro-4-(4-thiomorpholinyl)phenyl]-2-oxo-1,3-oxazolidin-5-yl}methyl)acetamide was prepared as described in PCT International Publication Number WO 01/98297 (Barbachyn et al.).
DMSG isotherms were collected on the variable temperature controlled atmospheric microbalance. Approximately 10 mg samples were used in the balance. […] The mass was then measured every two minutes. […]

[2] = Bulk drug stability (storage at elevated temperature and humidity, HPLC assay); assay type: physicochemical
Method: As referred to in the present application, “stable” in bulk drug stability tests means that at least about 90% by weight, preferably at least about 95% by weight, and more preferably at least about 99% by weight of the bulk drug remains unchanged after storage under the indicated conditions for the indicated time.
Aliquots (about 0.3 mg) of bulk anhydrous crystalline N-({(5S)-3-[4-(1,1-dioxido-4-thiomorpholinyl)-3,5-difluorophenyl]-2-oxo-1,3-oxazolidin-5-yl}methyl)acetamide were weighed into 2-mL vials. The uncapped vials were placed either in a 75% relative humidity chamber (desiccator containing water saturated with sodium chloride) or in a dry chamber (desiccator containing Drierite). The chambers were placed in temperature controlled cabinets at 56° C. and 70° C. A single vial was removed from each desiccator at selected time points and was assayed using high pressure liquid chromatography (HPLC).

SMILES: CC(=O)NC[C@H]1CN(c2cc(F)c(N3CCS(=O)(=O)CC3)c(F)c2)C(=O)O1 [Anhydrous Crystalline Form, N-({(5S)-3-[4-(1,1-dioxido-4-thiomorpholinyl)-3,5-difluorophenyl]-2-oxo-1,3-oxazolidin-5-yl}methyl)acetamide]
- Hygroscopicity ([1]; dynamic moisture sorption scan 0 to 87% relative humidity): not hygroscopic
- Moisture picked up during dynamic moisture sorption scan ([1]; scan from 0 to 87% relative humidity, 3% humidity steps, equilibrium time not more than 180 minutes per step): approximately 0.2%
- Bulk drug stability, % of initial HPLC peak area ([2]; 56° C., 75% relative humidity, Day 6): 100.1%
- Bulk drug stability, % of initial HPLC peak area ([2]; 56° C., 75% relative humidity, Day 13): 99.3%
- Bulk drug stability, % of initial HPLC peak area ([2]; 56° C., 75% relative humidity, Day 27): 99.9%
- Bulk drug stability, % of initial HPLC peak area ([2]; 56° C., 75% relative humidity, Day 61): 100.1%
- Bulk drug stability, % of initial HPLC peak area ([2]; 56° C., dessicator, Day 6): 100.1%
- Bulk drug stability, % of initial HPLC peak area ([2]; 56° C., dessicator, Day 13): 99.4%
- Bulk drug stability, % of initial HPLC peak area ([2]; 56° C., dessicator, Day 27): 100.0%
- Bulk drug stability, % of initial HPLC peak area ([2]; 56° C., dessicator, Day 61): 99.8%
- Bulk drug stability, % of initial HPLC peak area ([2]; 70° C., 75% relative humidity, Day 6): 100.1%
- Bulk drug stability, % of initial HPLC peak area ([2]; 70° C., 75% relative humidity, Day 13): 99.6%
- Bulk drug stability, % of initial HPLC peak area ([2]; 70° C., 75% relative humidity, Day 27): 99.9%
- Bulk drug stability, % of initial HPLC peak area ([2]; 70° C., 75% relative humidity, Day 61): 99.9%
- Bulk drug stability, % of initial HPLC peak area ([2]; 70° C., dessicator, Day 6): 100.1%
- Bulk drug stability, % of initial HPLC peak area ([2]; 70° C., dessicator, Day 13): 99.7%
- Bulk drug stability, % of initial HPLC peak area ([2]; 70° C., dessicator, Day 27): 100.0%
- Bulk drug stability, % of initial HPLC peak area ([2]; 70° C., dessicator, Day 61): 100.0%
- Bulk drug stability in aging tests (in words) ([2]; aging tests): excellent bulk drug stability
